Source: patent US20220146526A1, “METHOD FOR EVALUATING SAMPLE, ANALYSIS METHOD, METHOD FOR DETECTING DEGRADED SAMPLE, MARKER FOR DETECTING DEGRADED BLOOD PLASMA SAMPLE, AND MARKER FOR DETECTING DEGRADED SERUM SAMPLE” (SHIMADZU CORPORATION, priority 2019, published 2022)
Values joined by “and” are separate entries in the source; they are usually repeats but may differ in a detail not shown here. Equal values may be shown once. Blank lines part the entries; values can stand above or below the molecule they belong to.

Key:
Type in all cases: physicochemical, human
[1] = GC/MS of serum sample: time from blood collection to centrifugation (Table G); settings: for Rate of increase or decrease: detection intensity relative to 1 at 15 minutes; for Rate of increase or decrease / Increase or decrease: blood collection to centrifugation; for Increase or decrease: detection intensity
Procedure: (§1) After standing, the blood sample was subjected to centrifugation under a condition of room temperature, 3500 rpm, and 5 minutes. […] After centrifugation, the blood-collecting vessel was left to stand at room temperature, and the serum was isolated during this time. Here, in order to investigate how the detection intensity of molecules contained in the sample was affected in cases where the time during which the blood-collecting vessel was left at room temperature was set to 1 hour and 6 hours as compared to that in a case where the time was set to 30 minutes, preparations were performed under the respective conditions of 30 minutes, 1 hour, and 6 hours. The obtained serum sample was frozen and stored. Here, in order to investigate how the detection intensity of molecules contained in the sample was affected in cases where freezing and thawing was performed 4 times, 6 times, and 10 times after freezing as compared to that in a case where freezing and thawing was performed 2 times after freezing, freezing and thawing was performed under the respective conditions of 2, 4, 6, and 10 times.
(§2) Frozen blood plasma samples and serum samples were subjected to GC/MS or LC/MS. In GC/MS, the blood plasma samples and serum samples were subjected to methoxymation and trimethylsilylation and then introduced to GC-MS.
(§3) GC/MS was conducted using GCMS·TQ8040 (Shimadzu Corporation) that was a GC·MS equipped with AOC·20i (Shimadzu Corporation) as an autosampler.
(§4) Column: BPX5 (inner diameter of 0.25 mm, length of 30 m, and film thickness of 0.25 μm) (SGE)
(§5) Column temperature: maintained at 60° C. for 2 minutes, then raised at 15° C./min, and maintained at 330° C. for 3 minutes.
(§6) Inlet temperature: 250° C.
(§7) Carrier gas control mode: constant linear velocity of 39.0 cm/sec
(§8) Sample introduction method: split (split ratio of 30:1) Injection volume: 1 μL
(§9) Ionization method: electron ionization
(§10) Ionization current: 60 μA
(§11) Interface temperature: 280° C.
(§12) Ion source temperature: 200° C.
(§13) Mode: multiple reaction monitoring (MRM)
The rate of increase or decrease in Table G is the value of detection intensity relative to 1 that is the detection intensity in a case where the time from blood collection to centrifugation is set to 15 minutes.

[2] = GC/MS of serum sample: time from centrifugation to isolation (Table H); parameters: key to Rate of increase or decrease / Rate of increase or decrease (first value, increase): detection intensity relative to 1 at 30 min centrifugation-to-isolation; settings: for Rate of increase or decrease: detection intensity relative to 1 at 30 minutes; for Increase or decrease: detection intensity
Procedure: as §1, §2, §3, §4, §5, §6, §7, §8, §9, §10, §11, §12, §13
The rate of increase or decrease in Table H is the value of detection intensity relative to 1 that is the detection intensity in a case where the time from centrifugation to isolation is set to 30 minutes.

[3] = GC/MS of serum sample: number of times of freezing and thawing (Table I); parameters: key to Rate of increase or decrease / Rate of increase or decrease (first value, increase): detection intensity relative to 2 freeze-thaw cycles = 1; settings: for Rate of increase or decrease: detection intensity relative to 1 at 2 times; for Number of times when compound is affected: detection intensity changed by 30% or more vs 2 times of freezing and thawing
Procedure: as §1, §2, §3, §4, §5, §6, §7, §8, §9, §10, §11, §12, §13
The rate of increase or decrease in Table I is the value of detection intensity relative to 1 that is the detection intensity in a case where the number of times of freezing and thawing is set to 2 times.

[4] = serum, GC/MS, freezing and thawing 4 times
[5] = detection intensity, serum, GC/MS, freezing and thawing 4 times vs 2 times
[6] = serum, GC/MS, freezing and thawing 10 times
[7] = detection intensity, serum, GC/MS, freezing and thawing 10 times vs 2 times
[8] = 10 times of freezing and thawing
[9] = serum sample, GC/MS, detection intensity vs 2 times of freezing and thawing

SMILES: CCCCCCC(N)C(=O)O (centres unmarked) [2-Aminooctanoic acid]
Rate of increase or decrease ([1]; after 4 hours): 1.60 | Increase or decrease ([1]; after 4 hours vs 15 minutes): Increase | Rate of increase or decrease ([2]; after 1 hour): 1.67 | Increase or decrease ([2]; after 1 hour vs 30 minutes): Increase | Rate of increase or decrease [3, 4]: 2.80 | Increase or decrease [3, 5]: Increase

SMILES: O=C(O)CCC(O)C(=O)O (centres unmarked) [2-Hydroxyglutaric acid]
Rate of increase or decrease ([1]; after 8 hours): 2.00 | Increase or decrease ([1]; after 8 hours vs 15 minutes): Increase | Rate of increase or decrease ([2]; after 1 hour): 1.31 | Increase or decrease ([2]; after 1 hour vs 30 minutes): Increase

SMILES: O=C(O)C(=O)CO [3-Hydroxypyruvic acid]
Rate of increase or decrease ([1]; after 4 hours): 0.58 | Increase or decrease ([1]; after 4 hours vs 15 minutes): Decrease | Rate of increase or decrease ([2]; after 6 hours): 1.88 | Increase or decrease ([2]; after 6 hours vs 30 minutes): Increase | Rate of increase or decrease [3, 6]: 4.59 | Increase or decrease [3, 7]: Increase

SMILES: O=C(O)CCCCC(=O)O [Adipic acid]
Increase or decrease ([1]; after 4 hours vs 15 minutes): Different from individual | Rate of increase or decrease (second value, decrease) ([1]; different from individual to individual, individuals with decrease, relative to 1 at 15 minutes, collection to centrifugation, after 4 hours): 0.61 | Rate of increase or decrease (first value, increase) ([1]; different from individual to individual, individuals with increase, relative to 1 at 15 minutes, collection to centrifugation, after 4 hours): 2.06 | Rate of increase or decrease ([2]; after 1 hour): 2.50 | Increase or decrease ([2]; after 1 hour vs 30 minutes): Increase | Rate of increase or decrease [3, 6]: 2.14 | Increase or decrease [3, 7]: Increase

SMILES: O=C(O)c1ccccc1 [Benzoic acid]
Rate of increase or decrease ([1]; after 4 hours): 1.30 | Increase or decrease ([1]; after 4 hours vs 15 minutes): Decrease | Rate of increase or decrease ([2]; after 1 hour): 0.69 | Increase or decrease ([2]; after 1 hour vs 30 minutes): Decrease | Rate of increase or decrease [3, 8]: 3.86 | Number of times when compound is affected ([3]; serum sample, GC/MS): 10 times | Increase or decrease [3, 9]: Increase

SMILES: NCCCCCN [Cadaverine]
Rate of increase or decrease ([1]; after 4 hours): 1.38 | Increase or decrease ([1]; after 4 hours vs 15 minutes): Increase | Rate of increase or decrease ([2]; after 1 hour): 0.50 | Increase or decrease ([2]; after 1 hour vs 30 minutes): Decrease | Rate of increase or decrease ([3]; serum, GC/MS, freezing and thawing 6 times): 2.31 | Increase or decrease ([3]; detection intensity, serum, GC/MS, freezing and thawing 6 times vs 2 times): Increase

SMILES: CC(O)(CC(=O)O)C(=O)O (centres unmarked) [Citramalic acid]
Rate of increase or decrease ([1]; after 4 hours): 2.01 | Increase or decrease ([1]; after 4 hours vs 15 minutes): Increase | Rate of increase or decrease ([2]; after 1 hour): 0.33 | Increase or decrease ([2]; after 1 hour vs 30 minutes): Decrease | Rate of increase or decrease [3, 8]: 0.53 | Number of times when compound is affected ([3]; serum sample, GC/MS): 10 times | Increase or decrease [3, 9]: Decrease

SMILES: O=C(O)CCCc1ccccc1 [Phenylbutyric acid]
Rate of increase or decrease ([1]; after 12 hours): 2.17 | Increase or decrease ([1]; after 12 hours vs 15 minutes): Increase | Rate of increase or decrease ([2]; after 1 hour): 1.75 | Increase or decrease ([2]; after 1 hour vs 30 minutes): Increase | Rate of increase or decrease [3, 4]: 2.61 | Increase or decrease [3, 5]: Increase

SMILES: O=C(O)C(=O)Cc1ccccc1 [Phenylpyruvic acid]
Rate of increase or decrease ([2]; after 6 hours): 1.45 | Increase or decrease ([2]; after 6 hours vs 30 minutes): Increase | Rate of increase or decrease [3, 8]: 2.06 | Number of times when compound is affected ([3]; serum sample, GC/MS): 10 times | Increase or decrease [3, 9]: Increase

SMILES: CC(=O)C(=O)O [Pyruvic acid]
Rate of increase or decrease ([1]; after 4 hours): 0.65 | Increase or decrease ([1]; after 4 hours vs 15 minutes): Decrease | Rate of increase or decrease ([2]; after 1 hour): 0.66 | Increase or decrease ([2]; after 1 hour vs 30 minutes): Decrease

SMILES: CC(=NO)C(=O)O [Pyruvic oxime]
Rate of increase or decrease ([2]; after 6 hours): 1.34 | Increase or decrease ([2]; after 6 hours vs 30 minutes): Increase | Rate of increase or decrease [3, 8]: 1.69 | Number of times when compound is affected ([3]; serum sample, GC/MS): 10 times | Increase or decrease [3, 9]: Increase

SMILES: OC[C@@H](O)[C@@H](O)[C@@H](O)CO [Ribitol]
Rate of increase or decrease ([1]; after 8 hours): 1.44 | Increase or decrease ([1]; after 8 hours vs 15 minutes): Increase | Rate of increase or decrease ([2]; after 1 hour): 2.32 | Increase or decrease ([2]; after 1 hour vs 30 minutes): Increase

SMILES: O=C(CO)[C@@H](O)[C@H](O)CO [Xylulose]
Rate of increase or decrease ([1]; after 8 hours): 1.95 | Increase or decrease ([1]; after 8 hours vs 15 minutes): Increase | Rate of increase or decrease ([2]; after 6 hours): 2.48 | Increase or decrease ([2]; after 6 hours vs 30 minutes): Increase

The remaining lines, values ahead:

Rate of increase or decrease ([1]; after 4 hours): 1.93 | Increase or decrease ([1]; after 4 hours vs 15 minutes): Increase | Rate of increase or decrease ([2]; after 6 hours): 1.54 | Increase or decrease ([2]; after 6 hours vs 30 minutes): Increase | Increase or decrease [3, 7]: Different from individual | Rate of increase or decrease (second value, decrease) ([3]; different from individual to individual, individuals with decrease, relative to 1 at 2 times, serum, GC/MS, freezing and thawing 10 times): 0.67 | Rate of increase or decrease (first value, increase) ([3]; different from individual to individual, individuals with increase, relative to 1 at 2 times, serum, GC/MS, freezing and thawing 10 times): 2.21
SMILES: O=C(O)CCc1c[nH]c2ccccc12 [3-Indolepropionic acid]

Rate of increase or decrease ([1]; after 8 hours): 1.46 | Increase or decrease ([1]; after 8 hours vs 15 minutes): Increase | Rate of increase or decrease ([2]; after 6 hours): 1.39 | Increase or decrease ([2]; after 6 hours vs 30 minutes): Increase | Rate of increase or decrease [3, 4]: 1.39 | Increase or decrease [3, 5]: Increase
SMILES: CC(=O)CC(=O)O [Acetoacetic acid]

Rate of increase or decrease ([1]; after 4 hours): 0.58 and 0.55 | Increase or decrease ([1]; after 4 hours vs 15 minutes): Decrease | Rate of increase or decrease ([2]; after 1 hour): 1.31 | Increase or decrease ([2]; after 1 hour vs 30 minutes): Increase | Rate of increase or decrease [3, 4]: 0.45 and 0.46 | Increase or decrease [3, 5]: Decrease
SMILES: O=C(CO)[C@H](O)CO [Erythrulose]

Rate of increase or decrease ([1]; after 8 hours): 1.44 | Increase or decrease ([1]; after 8 hours vs 15 minutes): Increase | Rate of increase or decrease ([2]; after 1 hour): 1.54 | Increase or decrease ([2]; after 1 hour vs 30 minutes): Increase | Rate of increase or decrease [3, 8]: 1.77 | Number of times when compound is affected ([3]; serum sample, GC/MS): 10 times | Increase or decrease [3, 9]: Increase
SMILES: NCCCCN [Putrescine]

Rate of increase or decrease ([1]; after 8 hours): 0.68 | Increase or decrease ([1]; after 8 hours vs 15 minutes): Decrease | Increase or decrease ([2]; after 1 hour vs 30 minutes): Different from individual | Rate of increase or decrease (second value, decrease) ([2]; different from individual to individual, individuals with decrease, relative to 1 at 30 minutes, after 1 hour): 0.57 | Rate of increase or decrease (first value, increase) ([2]; different from individual to individual, individuals with increase, relative to 1 at 30 minutes, after 1 hour): 1.71 | Rate of increase or decrease [3, 4]: 1.33 | Increase or decrease [3, 5]: Increase
SMILES: O=C1O[C@H](CO)[C@@H](O)[C@H]1O [Ribonic acid lactone]

Rate of increase or decrease ([1]; after 8 hours): 0.55 | Increase or decrease ([1]; after 8 hours vs 15 minutes): Decrease | Rate of increase or decrease ([2]; after 6 hours): 1.45 | Increase or decrease ([2]; after 6 hours vs 30 minutes): Increase | Rate of increase or decrease [3, 4]: 0.56 | Increase or decrease [3, 5]: Decrease
SMILES: O=C(O)[C@@H](O)[C@H](O)CO [Threonic acid]
